In PMC6956804, “Potent antibacterial activity of MSI-1 derived from the magainin 2 peptide against drug-resistant bacteria” (Theranostics, 2020):
Values after ≈ are worked out from the molar mass of the structure shown. Peptide text beside a SMILES is read from it.

Experiments:
[1] = system: E. cloacae S1 (AmpC (+)); test: microbe, parasite or virus in culture; assay type: cell-based; conditions: E. cloacae S1 (AmpC (+)), clinical strain
Description: (§1) Bacterial strains were purchased from the American Type Culture Collection (ATCC). All clinical strains were isolated from human clinical specimens by the Medical Laboratory Center of Zhongda Hospital (Nanjing, Jiangsu, China). Ndm-1, tem-1, ctx-m-1, shv-1 -carrying bacteria were constructed as previously described. The recombinant bacteria carrying drug-resistant genes were prepared in LB nutrient and induced by IPTG (1 mM) for 4 h before text. Other bacterial strains were respectively prepared in MHB and Columbia Blood Agar Base.
(§2) A standard micro-broth serial dilution assay was used to measure MIC of peptides. MIC was obtained by a microplate reader at 600 nm. MBC was determined as previously described.

[2] = system: S. epidermidis ATCC35984; test: microbe, parasite or virus in culture; assay type: cell-based
Description: as §1, §2

[3] = system: E. coli A2 (ESBLs (+)); test: microbe, parasite or virus in culture; assay type: cell-based; conditions: E. coli A2 (ESBLs (+)), clinical strain
Description: as §1, §2

[4] = system: S. aureus ATCC25923; test: microbe, parasite or virus in culture; assay type: cell-based
Description: as §1, §2

[5] = system: E. faecalis; test: microbe, parasite or virus in culture; assay type: cell-based
Description: as §1, §2

[6] = system: P. aeruginosa ATCC27853; test: microbe, parasite or virus in culture; assay type: cell-based
Description: as §1, §2

[7] = system: E. coli A5 (ESBLs (+)); test: microbe, parasite or virus in culture; assay type: cell-based; conditions: E. coli A5 (ESBLs (+)), clinical strain
Description: as §1, §2

[8] = system: Shigella flexneri; test: microbe, parasite or virus in culture; assay type: cell-based
Description: as §1, §2

[9] = system: E. coli ATCC25922; test: microbe, parasite or virus in culture; assay type: cell-based; conditions: micro-broth serial dilution, 600 nm
Description: as §1, §2

[10] = system: S. pneumoniae ATCC 49619; test: microbe, parasite or virus in culture; assay type: cell-based
Description: as §1, §2

[11] = system: P. aeruginosa T1 (ESBLs (+)); test: microbe, parasite or virus in culture; assay type: cell-based; conditions: P. aeruginosa T1 (ESBLs (+)), clinical strain
Description: as §1, §2

[12] = system: E. faecium; test: microbe, parasite or virus in culture; assay type: cell-based
Description: as §1, §2

[13] = system: E. cloacae S3 (AmpC (+)); test: microbe, parasite or virus in culture; assay type: cell-based; conditions: E. cloacae S3 (AmpC (+)), clinical strain
Description: as §1, §2

[14] = system: P. aeruginosa T6 (ESBLs (+)); test: microbe, parasite or virus in culture; assay type: cell-based; conditions: P. aeruginosa T6 (ESBLs (+)), clinical strain
Description: as §1, §2

[15] = system: P. aeruginosa T8 (ESBLs (+)); test: microbe, parasite or virus in culture; assay type: cell-based; conditions: P. aeruginosa T8 (ESBLs (+)), clinical strain
Description: as §1, §2

[16] = system: E. coli A9 (ESBLs (+)); test: microbe, parasite or virus in culture; assay type: cell-based; conditions: E. coli A9 (ESBLs (+)), clinical strain
Description: as §1, §2

[17] = system: MSSE E8; test: microbe, parasite or virus in culture; assay type: cell-based, Staphylococcus epidermidis; conditions: MSSE E8, clinical strain
Description: as §1, §2

[18] = system: MRSE N104; test: microbe, parasite or virus in culture; assay type: cell-based, Staphylococcus epidermidis; conditions: MRSE N104, clinical strain
Description: as §1, §2

[19] = system: MRSE N109; test: microbe, parasite or virus in culture; assay type: cell-based, Staphylococcus epidermidis; conditions: MRSE N109, clinical strain
Description: as §1, §2

[20] = system: MSSE E3; test: microbe, parasite or virus in culture; assay type: cell-based, Staphylococcus epidermidis; conditions: MSSE E3, clinical strain
Description: as §1, §2

[21] = system: PRSP P105; test: microbe, parasite or virus in culture; assay type: cell-based, Streptococcus pneumoniae; conditions: PRSP P105, clinical strain
Description: as §1, §2

[22] = system: PISP F22; test: microbe, parasite or virus in culture; assay type: cell-based, Streptococcus pneumoniae; conditions: PISP F22, clinical strain
Description: as §1, §2

[23] = system: PISP F34; test: microbe, parasite or virus in culture; assay type: cell-based, Streptococcus pneumoniae; conditions: PISP F34, clinical strain
Description: as §1, §2

[24] = system: PRSP P112; test: microbe, parasite or virus in culture; assay type: cell-based, Streptococcus pneumoniae; conditions: PRSP P112, clinical strain
Description: as §1, §2

[25] = system: K. peneumoniae B4 (ESBLs (+)); test: organism not typed; assay type: cell-based; conditions: K. peneumoniae B4 (ESBLs (+)), clinical strain
Description: as §1, §2

[26] = system: K. peneumoniae B6 (ESBLs (+)); test: organism not typed; assay type: cell-based; conditions: K. peneumoniae B6 (ESBLs (+)), clinical strain
Description: as §1, §2

[27] = system: K. peneumoniae ATCC4352; test: organism not typed; assay type: cell-based
Description: as §1, §2

[28] = system: K. peneumoniae B9 (ESBLs (+)); test: organism not typed; assay type: cell-based; conditions: K. peneumoniae B9 (ESBLs (+)), clinical strain
Description: as §1, §2

[29] = system: MSSA D4; test: microbe, parasite or virus in culture; assay type: cell-based, Staphylococcus aureus; conditions: MSSA D4, clinical strain
Description: as §1, §2

[30] = system: MRSA M101; test: microbe, parasite or virus in culture; assay type: cell-based, Staphylococcus aureus; conditions: MRSA M101, clinical strain
Description: as §1, §2

[31] = system: MSSA D1; test: microbe, parasite or virus in culture; assay type: cell-based, Staphylococcus aureus; conditions: MSSA D1, clinical strain
Description: as §1, §2

[32] = system: MRSA M108; test: microbe, parasite or virus in culture; assay type: cell-based, Staphylococcus aureus; conditions: MRSA M108, clinical strain
Description: as §1, §2

[33] = system: G- and G+ bacteria; test: Antimicrobial activity, summary over the strains; assay type: cell-based; conditions: both G- and G+ bacteria, summary of Table 1
Description: as §2

Structure (SMILES) | MIC [1] | MIC [2] | MIC [3] | MIC [4] | MIC [5] | MIC [6] | MIC [7] | MIC [8] | MIC [9] | MIC [10] | MIC [11] | MIC [12] | MIC [13] | MIC [14] | MIC [15] | MIC [16] | MIC [17] | MIC [18] | MIC [19] | MIC [20] | further results
CC[C@H](C)[C@H](NC(=O)CN)C(=O)NCC(=O)N[C@@H](CCCCN)C(=O)N[C@@H](Cc1ccccc1)C(=O)N[C@@H](CC(C)C)C(=O)N[C@@H](CCCCN)C(=O)N[C@@H](CCCCN)C(=O)N[C@@H](C)C(=O)N[C@@H](CCCCN)C(=O)N[C@@H](CCCCN)C(=O)N[C@@H](Cc1ccccc1)C(=O)NCC(=O)N[C@@H](CCCCN)C(=O)N[C@@H](C)C(=O)N[C@@H](Cc1ccccc1)C(=O)N[C@H](C(=O)N[C@@H](CCCCN)C(=O)N[C@H](C(=O)N[C@@H](CC(C)C)C(=O)N[C@@H](CCCCN)C(=O)N[C@@H](CCCCN)C(N)=O)[C@@H](C)CC)C(C)C [MSI-78, pexiganan] (H-GIGKFLKKAKKFGKAFVKILKK-NH2) | 16 µg/mL (≈ 6.46 µM) | 16 µg/mL (≈ 6.46 µM) | 8 µg/mL (≈ 3.23 µM) | 16 µg/mL (≈ 6.46 µM) | 16 µg/mL (≈ 6.46 µM) | 16 µg/mL (≈ 6.46 µM) | 16 µg/mL (≈ 6.46 µM) | 32 µg/mL (≈ 12.9 µM) | 16 µg/mL (≈ 6.46 µM) | 16 µg/mL (≈ 6.46 µM) | 32 µg/mL (≈ 12.9 µM) | 8 µg/mL (≈ 3.23 µM) | 16 µg/mL (≈ 6.46 µM) | 16 µg/mL (≈ 6.46 µM) | 16 µg/mL (≈ 6.46 µM) | 16 µg/mL (≈ 6.46 µM) | 16 µg/mL (≈ 6.46 µM) | 32 µg/mL (≈ 12.9 µM) | 16 µg/mL (≈ 6.46 µM) | 32 µg/mL (≈ 12.9 µM) | MIC [21]: 16 µg/mL (≈ 6.46 µM); MIC [22]: 16 µg/mL (≈ 6.46 µM); MIC [23]: 32 µg/mL (≈ 12.9 µM); MIC [24]: 32 µg/mL (≈ 12.9 µM); MIC [25]: 16 µg/mL (≈ 6.46 µM); MIC [26]: 16 µg/mL (≈ 6.46 µM); MIC [27]: 8 µg/mL (≈ 3.23 µM); MIC [28]: 32 µg/mL (≈ 12.9 µM); MIC [29]: 32 µg/mL (≈ 12.9 µM); MIC [30]: 32 µg/mL (≈ 12.9 µM); MIC [31]: 16 µg/mL (≈ 6.46 µM); MIC [32]: 16 µg/mL (≈ 6.46 µM)
CC[C@H](C)[C@H](NC(=O)[C@@H](N)Cc1c[nH]c2ccccc12)C(=O)N[C@@H](CCCNC(=N)N)C(=O)N[C@@H](CCCCN)C(=O)N[C@@H](Cc1ccccc1)C(=O)N[C@@H](CC(C)C)C(=O)N[C@@H](CCCCN)C(=O)N[C@@H](CCCNC(=N)N)C(=O)N[C@H](C(=O)N[C@@H](CCCCN)C(=O)N[C@@H](CCCCN)C(=O)N[C@@H](Cc1ccccc1)C(=O)NCC(N)=O)C(C)C [MSI-4] (H-WIRKFLKRVKKFG-NH2) | 16 µg/mL (≈ 9.38 µM) | 16 µg/mL (≈ 9.38 µM) | 32 µg/mL (≈ 18.8 µM) | 16 µg/mL (≈ 9.38 µM) | 32 µg/mL (≈ 18.8 µM) | 32 µg/mL (≈ 18.8 µM) | 16 µg/mL (≈ 9.38 µM) | 16 µg/mL (≈ 9.38 µM) | 16 µg/mL (≈ 9.38 µM) | 16 µg/mL (≈ 9.38 µM) | 16 µg/mL (≈ 9.38 µM) | 16 µg/mL (≈ 9.38 µM) | 32 µg/mL (≈ 18.8 µM) | 32 µg/mL (≈ 18.8 µM) | 64 µg/mL (≈ 37.5 µM) | 32 µg/mL (≈ 18.8 µM) | 16 µg/mL (≈ 9.38 µM) | 32 µg/mL (≈ 18.8 µM) | 32 µg/mL (≈ 18.8 µM) | 16 µg/mL (≈ 9.38 µM) | MIC [21]: 64 µg/mL (≈ 37.5 µM); MIC [22]: 32 µg/mL (≈ 18.8 µM); MIC [23]: 16 µg/mL (≈ 9.38 µM); MIC [24]: 32 µg/mL (≈ 18.8 µM); MIC [25]: 64 µg/mL (≈ 37.5 µM); MIC [26]: 32 µg/mL (≈ 18.8 µM); MIC [27]: 32 µg/mL (≈ 18.8 µM); MIC [28]: 16 µg/mL (≈ 9.38 µM); MIC (range over strains) [33]: 16 to 64 µg/mL; MIC [29]: 16 µg/mL (≈ 9.38 µM); MIC [30]: 32 µg/mL (≈ 18.8 µM); MIC [31]: 32 µg/mL (≈ 18.8 µM); MIC [32]: 64 µg/mL (≈ 37.5 µM)
